# Tested on: plasma aldosterone and corticosterone levels
# Assay: Suppression of plasma aldosterone and corticosterone levels in ACTH-stimulated rats
# Assay type: in vivo, Wistar rats
# Conditions: rat plasma, 4 mg/kg p.o., 2 h after dosing vs 1 h before dosing
# Description: The aldosterone- and corticosterone-suppressing activity of herein described compounds may be assessed with the following in vivo protocol.
# Adult male Wistar rats weighing between 250 and 350 grams are kept under the usual 12 hour light and 12 hour dark conditions at a temperature of 23° C.±2° C. On the first day of the experiment, the animals receive a subcutaneous injection of a depot ACTH product in a dose of 1.0 mg/kg weight (SYNACTHEN-Depot, Novartis, Basel, CH) 16 hours prior to the administration of a test compound. […] An alternative method to stimulate aldosterone secretion consists in subjecting rats to a low salt diet for 48 hours and applying the diuretic furosemide at 10 mg/kg by subcutaneous or intraperitoneal administration 16 hours, respectively 2 hours prior to the start of the experiment. On the second day of the experiment, the animals are divided into test groups of 5 animals and subjected to a first bleed 1 hour prior to the administration of test compound. Subsequently, and 16 hours after the injection of the ACTH product, the animals receive either vehicle or test compound dissolved in vehicle in a variable dose range from 0.02 to 20 mg/kg by oral gavage. The animals are bled two more times from the vena subclavia under isoflurane anaesthesia 2 and 6 hours after dosing. The blood is collected in heparin-treated tubes. The plasma samples are obtained by centrifugation and stored at −20° C. An alternative method to bleed animals time-dependently consists in using animals that are chronically carotid catheterized which allows the periodical sampling of up to 0.2 ml of blood using an AccuSampler (DiLab Europe, Lund, Sweden). The blood sampling with the AccuSampler may occur 1 hour prior to the administration of a test compound and 2, 4, 6, 8, 12, 16 and 24 hours thereafter. The blood samples are anticoagulated with heparin and centrifuged. The aldosterone and corticosterone concentrations of the plasma samples can be determined with a radioimmunoassay as described above for the in vitro test systems.
# The selective suppression of plasma steroid levels as for instance aldosterone in comparison to corticosterone may serve as a measure for in vivo bioavailability and pharmacodynamic enzyme inhibitory activity of the herein described compounds. The evaluation of the data may occur relative to the application of vehicle or quantitatively by determination of the area under the curve (AUC).
SMILES,Aldosterone levels (% change at 2 h),Corticosterone levels (% change at 2 h)
CC(=O)c1ccc(C2COCc3cncn32)cc1 (stereo not shown) [Example 16],−67 % change,−9 % change
"Fc1ccc(C2COCc3cncn32)cc1 (stereo not shown) [Example 14, 5-(4-Fluorophenyl)-5,6-dihydro-8H-imidazo[5,1-c][1,4]oxazine]",−58 % change,−7 % change

# Source: patent publication US8138176B2, “Imidazo compounds” (Novartis AG, priority 2006, dated 2012)
